Laboratory results: patent publication US7098219B2, “Inhibitors of cellular efflux pumps of microbes” (Wockhart Limited, priority 2000, dated 2006)

Experiments:
[1] = test system: Pseudomonas aeruginosa 23587; test: Antibiotic diffusion assay, levofloxacin plate versus water control plate; assay type: cell-based; details: zone of inhibition in levofloxacin (5 mcg/ml) plate minus water control plate; Mueller Hinton Agar, 35° C. 20 hours
Protocol: (§1) Testing method for Inhibition of the Efflux Pumps of Pseudomonas aeruzinosa 23587, E. coli 2051, Streptococcus pneumoniae 3514 and Streptococcus pyozenus 26-00
Antibiotic Diffusion Assay
The activity of efflux pump inhibitor was also assessed using an antibiotic diffusion assay. For this assay Pseudomonas aeruginosa 23587 is used. Pseudomonas aeruginosa 23587 is a clinical isolate containing multiple efflux pumps which can be mexAB, mexCD, mexEF but not limited to mex classification only. Pseudomonas aeruginosa are grown in tryptic soya broth for 20 hours at 35° C. Two antibiotic assay plates are prepared in Mueller Hinton Agar using above inoculum. The bacterial count in a plate is 1×10^6 cells/ml. In one of the plates, levofloxacin is incorporated at 5 mcg/ml, while in the control plate an equivalent amount of water is added. […]. The plates are incubated at 35° C. for 20 hours and the zone of inhibition was recorded in mm (table 2). The difference in the diameter of zone of inhibition was calculated by subtracting from the diameter of the zone of inhibition in the levofloxacin containing plate the diameter of the zone of inhibition in the water containing control plate. Example, if the diameter of the zone of inhibition in the levofloxacin plate is X mm and the diameter of the zone of inhibition in the control plate is Y mm, the difference Z=X−Y and is a measure of the activity of the efflux pump inhibitor.

E. coli 2051 = test: as above; assay type: cell-based, Escherichia coli; details: zone of inhibition in levofloxacin (15 mcg/ml) plate minus water control plate; Mueller Hinton Agar, 35° C. 20 hours
Protocol: as §1
The activity of an efflux pump inhibitor of E. coli 2051 was also assessed using an antibiotic diffusion assay. For this assay E. coli 2051 is used. E. coli 2051 is a clinical isolate containing multiple efflux pumps. E. coli 2051 are grown in tryptic soya broth for 20 hours at 35° C. Two antibiotic assay plates are prepared in Mueller Hinton Agar using above inoculum. The bacterial count in a plate is 1×10^6 cells/ml. In one of the plates, levofloxacin is incorporated at 15 mcg/ml, while in the control plate an equivalent amount of water is added. […]. The plates are incubated at 35° C. for 20 hours and the zone of inhibition was recorded in mm (table 3) . The difference in the diameter of zone of inhibition was calculated by subtracting from the zone of inhibition in the levofloxacin containing plate the diameter of the zone of inhibition in the control plate.

[2] = test system: Staphylococcus aureus 1199 B NorA+; assay type: cell-based; details: combination with ciprofloxacin, broth microdilution checkerboard, 35° C. 20 hours; FIC index ≦0.5 synergistic, 0.5–2.0 additive, >2.0 antagonistic
Outline: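 Broth microdilution checkerboard with ciprofloxacin against S. aureus 1199B NorA+, pump inhibitor titrated along one axis; inoculum 5×10^5 CFU/ml in Mueller Hinton broth, 35 °C for 20 hours. Growth read by visible turbidity, confirmed by plate reader; FIC index derived from inhibitor MIC in combination versus alone.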

[3] = test system: Mef Efflux Pump of Streptococcus pneumoniae 3514 and Streptococcus pyogenes 26-00; test: Two plate diffusion assay for macrolide (Mef) efflux pump inhibitors, azithromycin plate versus control plate; assay type: cell-based; details: zone of inhibition in antibiotic plate (method: azithromycin 0.5 mcg/ml; footnote: levofloxacin) minus water control plate; strain not given

Molecule	Difference in Zone diameter Z1 (mm) [1]	Difference in Zone diameter Z1 (mm) (E. coli 2051)	FIC INDEX [2]	Difference in Zone diameter Z1 (mm) [3]
Cc1c(F)c(Br)cc2c1c(=O)c(C(=O)O)cn2C1CC1 [Example 2 (P. aeruginosa), 7-Bromo-1-cyclopropyl-6-fluoro-5-methyl-1l 4-dihydro-4-oxo-quinoline-3-carboxylic acid]	1 mm	9 mm		
CCN1C(C)CN(c2cc3c(cc2F)c(=O)c(C(=O)O)cn3C2CC2)CC1C (centres unmarked) [Example 16 (NorA), 1-Cyclopropyl-6-fluoro-1,4-dihydro-7-(3′,5′-dimethyl-4′-ethylpiperazin-1-yl)-4-oxo-quinoline-3-carboxylic acid]	8 mm		0.314	
Cc1c(F)c(N2CCC(O)C(CN)C2)c(F)c2c1c(=O)c(C(=O)O)cn2C1CC1 (centres unmarked) [Example 25 (NorA), 1-Cyclopropyl-6,8-difluoro-5-methyl-1,4-dihydro-7-(4′-hydroxy-3′-aminomethylpiperidin-1-yl)-4-oxo-quinoline-3-carboxylic acid]	5 mm		0.192	
O=C(O)c1cn(C2CC2)c2nc(NC3CCNC3)c(F)cc2c1=O (centres unmarked) [Example 49 (NorA), 1-Cyclopropyl-6-fluoro-1,4-dihydro-7-(pyrrolidin-3-yl-amino)-4-oxo-1,8naphthyridine-3-carboxylic acid]	6 mm		0.188	
C[C@H]1CCc2c(N3CCC(O)CC3)c(F)cc3c(=O)c(C(=O)[O-])cn1c23.C[N+](C)(C)CCO [Example 22 (P. aeruginosa), S-(−)-9-Fluoro-6,7-dihydro-8-(4′-hydroxypiperidin-1-yl)-5-methyl-1-oxo-1H,5H-benzo[i,j]quinolizine-2-carboxylic acid, choline salt]	3 mm	9 mm		
CCC1CN(c2c(F)cc3c(=O)c(C(=O)O)cn4c3c2OCC4C)CCC1O (centres unmarked) [Example 36 (P. aeruginosa), 7H-Pyrido[1,2,3-de]-1,4-benzoxazine-9-fluoro-2,3-dihydro-3-methyl-10-(4′-hydroxy-3′-ethylpiperidin-1′-yl)-7-oxo-6-carboxylic acid]	5 mm			5 mm
(S)-(−)-9-Fluoro-6,7-dihydro-8-(4′-hydroxypiperidin-1-yl)-5-methyl-1-oxo-1H,5H-benzo[i,j]quinolizine-2-carboxylic acid. (L) histidine salt [Example 25 (P. aeruginosa)]	5 mm			
CCOC(=O)C1(N)CCN(c2c(F)c(N)c3c(=O)c(C(=O)O)cn(C4CC4)c3c2F)C1 (centres unmarked) [Example 17 (P. aeruginosa)]	8 mm			
S-(-9-Fluoro-6,7-dihydro-8-(4′-hydroxypiperidin-1-yl)-5-methyl-1-oxo-1H,5H-benzo[i,j]quinolizine-2-carboxylic acid, 1-hydroxyethylpyrrolidine salt [Example 23 (P. aeruginosa)]	3 mm	11 mm		
COc1c(N2CCC(C)(O)CC2)c(F)cc2c(=O)c(C(=O)O)cn(C3CC3)c12 [Example 8 (P. aeruginosa), 1-Cyclopropyl-6-fluoro-8-methoxy-1,4-dihydro-7-(4′-hydroxy-4′-methylpiperidin-1-yl)-4-oxo-quinoline-3-carboxylic acid]	5 mm			
COc1c(N2CCC(N)C(C)(C)C2)c(F)cc2c(=O)c(C(=O)O)cn(C3CC3)c12 (centres unmarked) [Example 6 (P. aeruginosa), 1-Cyclopropyl-6-fluoro-8-methoxy-1,4-dihydro-7-(4′-amino-3′-3′-dimethylpiperidin-1-yl)-4-oxo-quinoline-3-carboxylic acid]	12 mm	11 mm		
CC1CCc2c(N3CC[C@@H](O)[C@H](C)C3)c(F)cc3c(=O)c(C(=O)O)cn1c23 (mixture of isomers) [Example 33 (P. aeruginosa), (RS)-(+)-9-Fluoro-6,7-dihydro-8-(trans-4′-hydroxy-3′-methylpiperidin-1-yl)-5-methyl-1-oxo-1H,5H-benzo[i,j]quinolizine-2-carboxylic acid]	6 mm			
COc1c(N2CCC(N)C(C)C2)c(F)c(N)c2c(=O)c(C(=O)O)cn(C3CC3)c12 (centres unmarked) [Example 4 (P. aeruginosa), 5-Amino-1-cyclopropyl-6-fluoro-8-methoxy-1,4-dihydro-7-(4′-amino-3′-methylpiperidin-1-yl)-4-oxo-quinoline-3-carboxylic acid]	5 mm			
C[C@H]1CCc2c(N3CCC(O)CC3)c(F)cc3c(=O)c(C(=O)O)cn1c23 [Example 21 (P. aeruginosa), S-(−)-9-Fluoro-6,7-dihydro-8-(4′-hydroxypiperidin-1-yl)-5-methyl-1-oxo-1H,5H-benzo[i,j]quinolizine-2-carboxylic acid 0.2 hydrate]	5 mm	9 mm		
O=C(O)c1cn(-c2ccc(F)cc2F)c2nc(NC3CCNCC3)c(F)cc2c1=O [Example 50 (NorA), 1-(2′,4′-Difluorophenyl)-6-fluoro-1,4-dihydro-7-(piperidin-4-yl-amino)-4-oxo-1,8-naphthyridine-3-carboxylic acid]	6 mm		0.314	
CCC1CN(c2nc3c(cc2F)c(=O)c(C(=O)O)cn3C2CC2)CCC1N (centres unmarked) [Example 20 (P. aeruginosa), 1-Cyclopropyl-6-fluoro-1,4-dihydro-7-(4′-amino-3′-ethylpiperidin-1-yl)-4-oxo-naphthyridine-3-carboxylic acid]	6 mm			
CC1CCc2c(N3CCC(OC(=O)[C@@H](N)CC(=O)O)CC3)c(F)cc3c(=O)c(C(=O)O)cn1c23.Cl (mixture of isomers) [Example 27 (P. aeruginosa), (RS)-(±)-9-Fluoro-6,7-dihydro-8-4′-(L-ot-aspartyloxy)piperidin-1-yl]-5-methyl-1-oxo-1H,5H-benzo[i,j]quinolizine-2-carboxylic acid hydrochloride]	11 mm			6 mm
COc1c(N2CCC(O)C(C)(C)C2)c(F)cc2c(=O)c(C(=O)O)cn(C3CC3)c12 (centres unmarked) [Example 21 (NorA), 1-Cyclopropyl-6-fluoro-8-methoxy-1,4-dihydro-7-(4′-hydroxy-3′,3′-dimethylpiperidin-1-yl)-4-oxo-quinoline-3-carboxylic acid]	8 mm		0.264	
CCn1cc(C(=O)O)c(=O)c2cc(F)c(N3CC4C(N)C4C3)c(F)c21 (centres unmarked) [Example 4 (NorA), 1-Ethyl-6,8-difluoro-1,4-dihydro-7-{(1∝,5∝,6∝)-6-amino-3-azabicyclo[3.1.01]-hex-3-yl}-4-oxo-quinoline-3-carboxylic acid]	7 mm		0.192	
